How the values were obtained:
[1] = Stability in serum; format: in vitro ADME
Procedure: The effects of four G-rich phosphodiester oligonucleotides (GROs) on the growth of tumor cells in culture were tested. These oligonucleotides consisted entirely of deoxyguanosine and thymidine and contained at least two contiguous guanosines. For increased stability to serum nucleases, oligonucleotides were modified at the 3′-terminus with a propylamino group. This modification protects the oligonucleotides from degradation in serum containing medium for at least twenty-four hours.

[2] = test system: tumor cells; assay: In-vitro experiments with SEQ ID NO:12 in tumor cells; format: cell-based
Text: SEQ ID NO: 12, a G-rich oligonucleotide (GRO) aptamer comprising a single-strand oligonucleotide of 26 bases, was selected for the study. […] Preclinical data indicates potential of SEQ ID NO: 12 against a wide variety of solid and hematologic malignancies.

[3] = test system: advanced, metastatic RCC (renal-cell carcinoma); assay: Phase 1 study, RCC patients; format: in vivo, human
Procedure: (§1) A Phase 1, open label, non-randomized dose escalation study of SEQ ID NO:12 was conducted on 17 human individuals with various advanced malignancies. […] After these 17 individuals had received treatment, only individuals with RCC (renal-cell carcinoma) or non-small-cell lung cancer (NSCLC) were enrolled in the clinical trial to obtain data for more homogenous patient populations and thereby enhance the quality of the results.
Following these findings, the trial was extended to include additional individuals (“patients”) with RCC (renal-cell carcinoma) or non-small-cell lung cancer. All of said individuals had progressive, metastatic cancers upon entry to the study. It should be noted that none of the individuals had received chemotherapy, radiotherapy or any investigational agent for cancer within the 4 weeks prior to entry to the study or 6 weeks prior for nitrosourea or mitomycin C. All individuals enrolled in the study were evaluable for toxicity and response and had measurable disease, i.e. able to be measured accurately in one or more dimension(s). Participants of the study were recruited at one site: the University of Louisville, James Brown Cancer Center, in Louisville, Ky., USA. The study was conducted in accordance with Good Clinical Practices and the Declaration of Helsinki. Institutional Review Board approval and informed patient consent were obtained before the study began.
(§2) The SEQ ID NO:12 aptamer was administered to individuals as a continuous intravenous infusion. All individuals received one or two cycles of treatment. The dose escalation protocol provided a division of the subjects into cohorts of 3 in sequential order. If no individuals in a cohort experienced DLT within […] of treatment, the dosage was escalated to the next level. The dosage was increased up to 10 mg/kg/day for 7 days in the first 17 individuals and increased up to 40 mg/kg/day for 7 days in the RCC/NSCLC extension. The original starting dose was about 1 mg/kg/day for 4 days for both sets of individuals.
If no subject in the first cohort experienced DLT within 14 days of treatment, the dose for the next cohort was escalated to the next level. […] For this study, DLT was identified as grade 3-4 non-hematological toxicity, grade 4 hematological toxicity that persisted for 3 or more days, grade 4 febrile neutropenia, or grade 4 thrombocytopenia with bleeding. Toxicity was graded according to the National Cancer Institute Common Terminology for Adverse Events (“NCI-CTCAE”) version 3.0.
Dose escalation was accomplished by doubling until a biological effect was noted (i.e., by development of NCI-CTCAE grade 2 toxicity), at which point the dose was escalated using a modified Fibonacci design (dose increments to 1.6 times the pervious dose level). The maximum dose for the study was 40 mg/kg/day.
(§3) Baseline evaluations included medical history, 12-lead electrocardiogram, safety assessments and tumor measurements within 1 week of the start of the study. Individuals were monitored in the hospital during infusion of the SEQ ID NO:12 aptamer (days 1-8) and then evaluated subsequently on days 15, 29 and 58.
Efficacy was assessed by tumor measurements and radiological evaluation at baseline ([…] to the start of the study), at day 29 and day 58.
Tumor measurements were conducted using photographs (skin lesions), chest X-rays, CT scans, magnetic resonance imaging (MRI) and ultrasound. The assessments of tumor measurements were conducted using the Response Evaluation Criteria in Solid Tumors (RECIST) guidelines. See Arbuck et al., (2000) Journal Nat'l Cancer Inst., 92: 205-16. All tumor measurements were taken in metric notation using a ruler or caliper.
As a preliminary note, tumor response was evaluated using RECIST guidelines and categorized as complete response (CR), partial response (PR), stable disease (SD) or progressive disease (PD). […]

[4] = test system: non-small-cell lung cancer (NSCLC); assay: Phase 1 study, NSCLC patients; format: in vivo, human; settings: RECIST
Procedure: as §1
Following these findings, the trial was extended to include additional individuals (“patients”) with RCC (renal-cell carcinoma) or non-small-cell lung cancer. All of said individuals had progressive, metastatic cancers upon entry to the study. […] All individuals enrolled in the study were evaluable for toxicity and response and had measurable disease, i.e. able to be measured accurately in one or more dimension(s). […]
as §3
Efficacy was assessed by tumor measurements and radiological evaluation at baseline ([…] to the start of the study), at day 29 and day 58. […]

[5] = Phase 1 study, toxicity; format: in vivo, human; settings: doses up to 40 mg/kg/day for up to 7 days, continuous i.v. infusion
Procedure: as §2
If no subject in the first cohort experienced DLT within 14 days of treatment, the dose for the next cohort was escalated to the next level. […] For this study, DLT was identified as grade 3-4 non-hematological toxicity, grade 4 hematological toxicity that persisted for 3 or more days, grade 4 febrile neutropenia, or grade 4 thrombocytopenia with bleeding. […]
as §3

[6] = target: T1, G-rich oligonucleotide binding protein / nucleolin (Homo sapiens, UniProt P19338); assay: Protein binding, summary statements (EMSA); settings: characterization of the aptamer
T1 construct: endogenous in cells; MDA-MB-231)
T1 sequence (P19338 whole entry): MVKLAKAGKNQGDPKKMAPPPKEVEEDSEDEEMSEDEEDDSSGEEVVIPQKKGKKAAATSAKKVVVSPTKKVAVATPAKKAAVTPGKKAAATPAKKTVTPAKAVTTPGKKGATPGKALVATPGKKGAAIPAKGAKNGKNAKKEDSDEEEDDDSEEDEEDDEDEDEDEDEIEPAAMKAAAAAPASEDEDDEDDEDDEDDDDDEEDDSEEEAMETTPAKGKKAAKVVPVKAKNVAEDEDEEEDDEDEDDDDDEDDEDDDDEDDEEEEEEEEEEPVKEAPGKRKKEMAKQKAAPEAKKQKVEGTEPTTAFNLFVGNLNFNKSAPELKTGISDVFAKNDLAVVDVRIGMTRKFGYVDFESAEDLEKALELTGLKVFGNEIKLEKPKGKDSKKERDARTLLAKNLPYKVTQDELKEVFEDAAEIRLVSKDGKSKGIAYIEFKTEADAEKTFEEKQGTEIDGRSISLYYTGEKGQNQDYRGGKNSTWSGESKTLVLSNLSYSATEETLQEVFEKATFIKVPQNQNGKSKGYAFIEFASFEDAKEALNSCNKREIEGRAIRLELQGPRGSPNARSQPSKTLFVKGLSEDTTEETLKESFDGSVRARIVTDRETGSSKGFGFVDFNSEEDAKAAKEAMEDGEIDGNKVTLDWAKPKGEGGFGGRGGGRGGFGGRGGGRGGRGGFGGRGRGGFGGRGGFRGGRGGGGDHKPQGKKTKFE
Text: By G-rich oligonucleotide (GRO) it is meant that the oligonucleotides consist of 4-100 nucleotides (preferably 10-30 nucleotides) with DNA, RNA, 2′-O-methyl, phosphorothioate or other chemically similar backbones. Their sequences contain one or more GGT motifs. The oligonucleotides have antiproliferative activity against cells and bind to GRO binding protein and/or nucleolin.
Additionally, the present invention provides a method for selecting oligonucleotides that bind to nucleolin. The method utilizes an electrophoretic mobility shift assay (EMSA), as described below, to screen for oligonucleotides that bind strongly to nucleolin and which, therefore, would be expected, according to the present invention, to have anti-proliferative activity. Oligonucleotides to be screened as potential antiproliferative agents are labeled and then incubated with nuclear extracts in the absence or presence of unlabeled competitor oligonucleotide and are allowed to react. The reaction mixtures are then electrophoresed and mobility shifts and/or bond intensity can be used to identify those oligonucleotides which have bound to the specific protein.
Alternatively, unlabeled compounds to be screened are incubated with nuclear extracts in the presence of labeled oligonucleotide (for example 5′-TTAGGGTTAGGGTTAGGG TTAGGG) (SEQ ID NO: 20) and binding is assessed by a decrease in the intensity of the shifted band, as in FIG. 6B.

Substance: 5′-GGTGGTGGTGGTTGTGGTGG TGGTGG-3′ [SEQ ID NO:12]
- stability in serum [1]: extremely stable and resistant to degradation by serum enzymes
- anti-proliferative response in tumor cells [2]: strong anti-proliferative response
- metastasis, first RCC responder ([3]; 18 months after treatment): single brain metastasis
- disease status, first RCC responder ([3]; 26 months after one seven-day infusion at 10 mg/kg): no evidence of disease
- clinical benefit (CR+PR+SD) ([3]; RCC patients, RECIST): 75%
- response rate (CR+PR) ([3]; RCC patients, continuous i.v. infusion, up to 40 mg/kg/day for up to 7 days, RECIST): 17%
- complete response ([3]; RCC subjects, RECIST): 8.4%
- partial response ([3]; RCC subjects, RECIST): 8.4%
- stable disease for the duration of the study ([3]; RCC subjects, RECIST): 58%
- decrease in the sum of greatest linear dimensions of target lesions from baseline ([3]; second RCC responder, two seven-day infusions at 22 mg/kg): about 70%
- stable disease for the duration of the study [4]: 40%
- tolerability / toxicity [5]: well tolerated with no serious toxicity of any type related to drug administration
- specificity of binding [6]: specificity for nucleolin

Source: patent US8114850B2, “Antiproliferative activity of G-rich oligonucleotides and method of using same to bind to nucleolin” (Advanced Cancer Therapeutics, LLC, priority 1999, dated 2012)
